Source: patent publication US20200207989A1, “FLUORESCENT PROBE FOR ALDH3A1 DETECTION” (The University of Tokyo, priority 2016, published 2020)

T1: ALDH1A1 (Homo sapiens, UniProt P00352)
T1 construct: purchased
T1 sequence (P00352 1-501): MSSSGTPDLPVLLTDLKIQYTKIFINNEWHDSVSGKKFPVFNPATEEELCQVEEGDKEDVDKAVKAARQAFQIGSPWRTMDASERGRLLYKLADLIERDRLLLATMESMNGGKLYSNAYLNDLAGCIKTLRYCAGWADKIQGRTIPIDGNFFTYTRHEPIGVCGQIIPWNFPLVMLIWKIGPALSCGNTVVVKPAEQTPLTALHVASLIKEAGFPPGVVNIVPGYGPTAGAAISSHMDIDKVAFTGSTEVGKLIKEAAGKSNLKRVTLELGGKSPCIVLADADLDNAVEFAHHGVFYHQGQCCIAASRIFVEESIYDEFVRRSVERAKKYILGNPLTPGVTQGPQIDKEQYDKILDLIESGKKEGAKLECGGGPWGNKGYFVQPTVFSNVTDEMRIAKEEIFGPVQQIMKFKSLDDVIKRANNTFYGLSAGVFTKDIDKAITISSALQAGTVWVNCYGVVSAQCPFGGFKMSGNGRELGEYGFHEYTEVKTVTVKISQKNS

T2: ALDH3A1 (Homo sapiens, UniProt P30838)
T2 construct: purchased
T2 sequence (P30838 1-453): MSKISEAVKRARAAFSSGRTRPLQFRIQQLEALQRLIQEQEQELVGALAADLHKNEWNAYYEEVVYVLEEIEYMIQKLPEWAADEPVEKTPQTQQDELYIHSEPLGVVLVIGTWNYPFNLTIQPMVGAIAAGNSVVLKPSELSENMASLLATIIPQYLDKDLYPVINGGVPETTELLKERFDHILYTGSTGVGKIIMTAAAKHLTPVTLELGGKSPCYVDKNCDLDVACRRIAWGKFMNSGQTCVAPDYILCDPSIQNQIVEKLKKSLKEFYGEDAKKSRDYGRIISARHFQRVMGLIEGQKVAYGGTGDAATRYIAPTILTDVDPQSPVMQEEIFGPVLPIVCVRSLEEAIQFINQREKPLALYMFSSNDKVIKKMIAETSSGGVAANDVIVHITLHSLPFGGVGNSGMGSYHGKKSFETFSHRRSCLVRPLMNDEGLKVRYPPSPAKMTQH

T3: ALDH1A3 (Homo sapiens, UniProt P47895)
T3 construct: purchased
T3 sequence (P47895 1-512): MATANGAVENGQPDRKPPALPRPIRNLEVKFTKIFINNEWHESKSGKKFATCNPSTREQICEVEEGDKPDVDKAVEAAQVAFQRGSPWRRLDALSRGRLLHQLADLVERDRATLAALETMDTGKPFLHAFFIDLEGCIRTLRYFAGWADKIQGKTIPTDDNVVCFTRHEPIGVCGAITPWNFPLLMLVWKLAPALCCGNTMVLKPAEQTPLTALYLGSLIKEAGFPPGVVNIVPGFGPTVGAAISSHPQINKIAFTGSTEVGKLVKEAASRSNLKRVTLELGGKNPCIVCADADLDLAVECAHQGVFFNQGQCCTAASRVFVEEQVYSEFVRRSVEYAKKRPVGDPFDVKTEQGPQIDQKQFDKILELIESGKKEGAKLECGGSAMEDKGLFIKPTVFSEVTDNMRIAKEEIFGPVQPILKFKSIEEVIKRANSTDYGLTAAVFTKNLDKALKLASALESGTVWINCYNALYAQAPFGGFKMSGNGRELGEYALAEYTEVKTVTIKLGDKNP


Legend:
ALDH1A1 [1] = biological target: T1, ALDH1A1; experiment: Reactivity of probes to recombinant ALDH1A1 (UPLC/MS/MS detection of aldehyde and carboxylic acid forms); type: biochemical; settings: 10-100 nM ALDH, 10-80 μM compound, Tris buffer pH 7.5, 30 minutes at 37° C., ◯/X not defined by a legend
Experimental: (§1) Human recombinant ALDH1A1/1A3/3A1 was purchased, and 100 mM of KCL, 2 mM of DTT, 1 mM of NAD(P), 10-100 nM of each ALDH, and 10-80 μM of each compound were mixed in Tris buffer (100 mM, pH 7.5), reacted for 30 minutes at 37° C., an equal amount of acetonitrile added, and the reaction stopped. The reaction solution was analyzed by UPLC/MS/MS (Waters). The UPCL chromatogram was carried out over five minutes at a flow rate of 800 μL/min by a linear gradient from 5% acetonitrile 0.01 M ammonium formate/water to 95% acetonitrile 0.01 M ammonium formate/water. An aldehyde-form and carboxylic acid-form probe were detected by the absorbance at a wavelength of 504 nm, and m/z of the MS spectrum at each peak was confirmed to agree with the expected m/z.

ALDH3A1 [2] = biological target: T2, ALDH3A1; experiment: Reactivity of probes to recombinant ALDH3A1 (UPLC/MS/MS); type: biochemical; settings: 10-100 nM ALDH, 10-80 μM compound, Tris buffer pH 7.5, 30 minutes at 37° C., ◯/X not defined by a legend
Experimental: as §1, with “formate/water.” for “formate/water. An aldehyde-form and carboxylic acid-form probe were detected by the absorbance at a wavelength of 504 nm, and m/z of the MS spectrum at each peak was confirmed to agree with the expected m/z.”

ALDH1A1 [3] = biological target: T1, ALDH1A1; experiment: Kinetic characteristics (Michaelis-Menten Km, Kcat) with ALDH1A1; type: biochemical; settings: five minutes at 37° C., Tris buffer pH 7.5
Experimental: as §1
(§2) For the reaction, 100 mM of KCL, 2 mM of DTT, 1 mM of NAD(P), and five to six concentrations within the range of 10-100 nM of each ALDH and 0.1-80 μM of each probe were selected, mixed in Tris buffer (100 mM, pH 7.5), and reacted for five minutes at 37° C.; an equal amount of acetonitrile was added, and the reaction was stopped. Detection of the aldehyde-form/carboxylic acid-form probes was carried out using the same method as described above by UPLC/MS/MS. Km and Kcat were calculated by fitting the reaction rate at each probe concentration obtained to the Michaelis-Menten equation. A Kaleida Graph ver. 4.1 (Hulinks, Inc.) was used in fitting.

ALDH3A1 [4] = biological target: T2, ALDH3A1; experiment: Kinetic characteristics (Michaelis-Menten Km, Kcat) with ALDH3A1; type: biochemical
Experimental: as §1, §2
The Kcat ratio (Kcat of ALDH3A1/Kcat of ALDH1A1) was calculated for probe 1, probe 3, and probe 5 as an indicator of ALDH1A1/ALDH3A1 specificity because the probe reaction rate at the actual probe use concentration is believed to be close to Vmax since Km is relatively small (Table 5).

[5] = HPLC (LC/MS) retention time as measure of hydrophilicity / membrane permeability; type: physicochemical; settings: C18 column; 20% B 2.5 min, 20%-->100% B 5 min, 500 μL/min; neutral conditions; mean±SD of three tests
Experimental: In the present invention, it is preferable to use the retention time on an HPLC chromatogram as the measure of hydrophilicity.
HPLC conditions: taking solvent A to be 0.01 M ammonium formate/water and solvent B to be 80% acetonitrile 0.01 M ammonium formate/water, chromatography is carried out under conditions of 20% solvent B for 2.5 minutes followed by a 5-minute linear gradient of solvent B from 20% to 100% (flow rate 500 μL/min).
A C18 column (HP 3 μm, inner diameter: 2.1 mm, length: 150 mm, GL Science), for example, can be used suitably as the column.
The water solubility was verified by LC/MS under neutral conditions to compare the membrane permeability of the five probes produced above and ALDEFLUOR. The reaction was stopped after advancing the reaction to the point that each probe was present as both a carboxylic acid form and an aldehyde form using a suitable isoform and concentration of ALDH, and analysis was conducted by LC/MS (Agilent 1200/6130 quadrupole LC/MS system). A C18 column (HP 3 μm, inner diameter: 2.1 mm, length: 150 mm, GL Science) was used as the column. HPLC chromatograms were carried out by 20% B for 2.5 minutes followed by a five-minute linear gradient (flow rate: 500 μL/min) from 20% to 100% B, taking solvent A to be 0.01 M ammonium formate/water and solvent B to be 80% acetonitrile 0.01 M ammonium formate/water. The probe containing BODIPY was detected by the absorbance at a wavelength of 504 nm and the probe containing TG at a wavelength of 495 nm, and m/z of the MS spectrum at each peak was confirmed to agree with the expected m/z. Three independent tests were run, and the mean±SD was calculated. […] Given that imaging of probe 1 was not successful, there was thought to be a threshold at which the membrane permeability changes rapidly between this 6.741 minutes and 7.098 minutes (band in FIG. 2).

OE21 cell line = experiment: Cell imaging of OE21 cells against CB7 negative control; type: cell-based; settings: probe 5: 40 μM, 90 minutes at 37° C., CB7 10 μM control
Experimental: 40 μM of probe 5 was added to culture medium (RPMI 1640, 10% FBS, 15 mM HEPES, phenol red-free). After culturing for 90 minutes at 37° C., the cells were washed using a chilled medium and examined under a confocal microscope. A sample with a specific ALDH3A1 inhibitor (1-[(4-fluorophenyl)sulfonyl]-2-methyl-1H-benzimidazole, CB7, 10 μM) added served as a negative control. Excitation was provided by a 488 nm laser, and observation was carried out at wavelengths of […] in detection.

ALDH1A3 = biological target: T3, ALDH1A3; experiment: Reactivity of probes to recombinant ALDH1A3 (UPLC/MS/MS); type: biochemical; settings: 10-100 nM ALDH, 10-80 μM compound, Tris buffer pH 7.5, 30 minutes at 37° C.; ◯/X not defined by a legend
Experimental: as §1, with “formate/water.” for “formate/water. An aldehyde-form and carboxylic acid-form probe were detected by the absorbance at a wavelength of 504 nm, and m/z of the MS spectrum at each peak was confirmed to agree with the expected m/z.”

A549 cells = test system: A549 cells
Text: An esophageal squamous cell carcinoma cell line (OE21 cell line) which are cells that express a high level of ALDH3A1 was used as the cells.

[6] = substrate: CCN(CCOCCNC(=O)c1ccc(-c2c3ccc(=O)cc-3oc3cc(O)ccc23)c(C)c1)c1ccc(C=O)cc1; experiment: Kinetic characteristics (Michaelis-Menten Km, Kcat) with ALDH1A1; type: biochemical, Human; settings: other: five minutes at 37° C., Tris buffer pH 7.5
Experimental: as §1, §2

[7] = five minutes at 37° C., Tris buffer pH 7.5

Row | Reactivity to ALDH1A1 (ALDH1A1 [1]; listed as compound 2) | Reactivity to ALDH1A3 (ALDH1A3) | Molecule | Reactivity to ALDH1A1 (ALDH1A1 [1]) | Reactivity to ALDH1A1 (ALDH1A1 [1]; listed as compound 3) | Reactivity to ALDH3A1 (ALDH3A1 [2]) | Reactivity to ALDH3A1 (ALDH3A1 [2]; listed as compound 3) | Kcat ALDH1A1 (ALDH1A1 [3]) | Km (ALDH1A1 [3]) | Kcat ALDH3A1 (ALDH3A1 [4]; [7]) | Km (ALDH3A1 [4]; [7]) | Kcat ratio (Kcat of ALDH3A1/Kcat of ALDH1A1) (ALDH3A1 [4]; indicator of ALDH1A1/ALDH3A1 specificity) | Retention Time, Aldehyde form [5] | Retention Time, carboxylate (carboxylic acid form) [5] | Brightness of cells in imaging compared to negative control (CB7) (OE21 cell line) | Brightness of cells in imaging compared to negative control (A549 cells) | Km [6] | kcat [6]
1 | – | – | 2-(N-ethyl-N-(4-formylphenyl)amino)ethyl-3-(1,3-dimethyl-4,4-difluoro-4-bora-3a,4a-diaza-s-indacen-5-yl)-propionamide [Probe 3] | ◯ | reacted with ALDH1A1 and ALDH3A1 | ◯ | reacted with ALDH1A1 and ALDH3A1 | 0.101 ± 0.00333 s⁻¹ | 0.17 ± 0.03 µM | 0.203 ± 0.0033 s⁻¹ | 0.87 ± 0.07 µM | 2 | 9.153 ± 0.010 min | 7.920 ± 0.052 min | no evident difference in brightness could be found in comparison to the negative control | – | – | –
2 | presented reactivity only with ALDH1A1 | presented reactivity only with ALDH1A1 | N-(4-formylphenyl)-3-(1,3-dimethyl-4,4-difluoro-4-bora-3a,4a-diaza-s-indacen-5-yl)-propionamide [Probe 2] | ◯ | – | presented reactivity only with ALDH1A1 | – | 3.4 ± 0.415 s⁻¹ | 5.76 ± 2.39 µM | – | – | – | 9.330 ± 0.002 min | 7.284 ± 0.047 min | – | no evident difference in brightness was found in comparison to the negative control | – | –
3 | – | – | ALDH1A1 (Homo sapiens) (protein, purchased) MSSSGTPDLPVLLTDLKIQYTKIFINNEWHDSVSGKKFPVFNPATEEELCQVEEGDKEDVDKAVKAARQAFQIGSPWRTMDASERGRLLYKLADLIERDRLLLATMESMNGGKLYSNAYLNDLAGCIKTLRYCAGWADKIQGRTIPIDGNFFTYTRHEPIGVCGQIIPWNFPLVMLIWKIGPALSCGNTVVVKPAEQTPLTALHVASLIKEAGFPPGVVNIVPGYGPTAGAAISSHMDIDKVAFTGSTEVGKLIKEAAGKSNLKRVTLELGGKSPCIVLADADLDNAVEFAHHGVFYHQGQCCIAASRIFVEESIYDEFVRRSVERAKKYILGNPLTPGVTQGPQIDKEQYDKILDLIESGKKEGAKLECGGGPWGNKGYFVQPTVFSNVTDEMRIAKEEIFGPVQQIMKFKSLDDVIKRANNTFYGLSAGVFTKDIDKAITISSALQAGTVWVNCYGVVSAQCPFGGFKMSGNGRELGEYGFHEYTEVKTVTVKISQKNS | – | – | – | – | – | – | – | – | – | – | – | – | – | 0.26 ± 0.05 µM | 0.017 ± 0.00067 s⁻¹
